Experimental data taken from patent US20170224840A1, “Drug Delivery System Comprising A Cancer Stem Cell-Targeted Carbon Nanotube, Preparation and Use Thereof” (Institute of Pharmacology and Toxicology Academy of …, priority 2014, published 2017).

What was measured:
AGS cells = test: Effect on proportion of CD44+ cells in AGS cells (flow cytometry); format: cell-based, human; settings: drug concentration 1.0 μM, 48 h; blank control 5.2±0.1%
Protocol: In order to measure the effects of various salinomycin dosage forms on the expression of CD44 in AGS cells, AGS cells were seeded in 6-well plates at 3×10^5 cells/well. After incubation for 24 h, AGS cells were incubated with free mitomycin, free salinomycin, SAL-SWNTs-CHI or SAL-SWNTs-CHI-HA (drug concentration was 1.0 μM) separately at 37° C. for 48 h. The blank medium was used as control. After incubation, the cells were washed three times with cold PBS, digested with 0.25% trypsin, and then pipetted with PBS to make cell suspensions. The expression rates of CD44 in AGS cells were detected by flow cytometry.

[1] = test system: gastric cancer stem cell spheres; test: Penetration of stem cell spheres by laser confocal microscopy; format: cell-based, human; settings: FITC 5 uM, 12 hours
Protocol: (§1) CD44+ cell suspension was inoculated to a low-absorption 24-well plate in an amount of 5×10^4/well, and subjected to suspension culture with DMEM/F12 medium (1% N2, 2% B27, 10 ng/mL bFGF, 20 ng/mL EGF), incubated in a 5% CO2 incubator at 37° C. for 6 days. Medium was replaced every three days. The stem cell spheres with diameter of more than 200 μm were transferred to a 96-well culture plate, one sphere per well.
Free FITC, FITC-SWNTs-CHI or FITC-SWNTs-CHI-HA were separately added to the wells of a 96-well plate containing stem cell spheres, and the concentration of FITC in the above preparations was 5 uM. After the addition, the 96-well plate was placed in a 37° C., 5% CO2 incubator to continue the culture for 12 hours; then the stem cell spheres were transferred to a glass-bottom dish, 5 stem cell spheres in each group, washed three times with fresh culture medium, and then 100 μl of fresh culture medium was added in each dish; for each stem cell sphere, it was light-cut into layers from the top to the center of the sphere at 10 μm intervals, and FITC fluorescence intensities of different layers were studied.

CD44− cells = test: WST-8 proliferation inhibition, CD44- cells; format: cell-based, human; settings: 48 h, series of concentrations
Protocol: (§2) CD44+ cells and CD44-cells sorted from human gastric cancer cell line AGS were seeded in an amount of 5000/well to 96-well plates, and incubated for 24 h at 37° C. in a 5% CO2 incubator. Free salinomycin in a series of concentrations, SAL-SWNTs-CHI, SAL-SWNTs-CHI-HA or blank SWNTs-CHI-HA were added to, and same amount of drug-free culture medium was used as blank control. After the addition, the 96-well plates were incubated for 48 h at 37° C. in a 5% CO2 incubator. After the completion of the cell culture, the plates were taken out and the culture media in the wells were removed. After washing with sterile PBS, 100 μL of PBS and 10 μL of WST-8 reagent were added to each well, and incubation was continued for 2 hours. Optical density (OD) was measured at the wavelength of 450 nm using a microplate reader. The toxicities of various salinomycin preparations on gastric cancer stem cells were evaluated by using the percentages of surviving cells (Survival rate, %) after the addition and culture. The percentages of surviving cells were calculated according to the following formula:
(§3) Inhibition rate=1−Cell survival rate.

breast cancer stem cells = settings: cited from earlier work
[2] = test system: gastric cancer stem cell spheres; test: Inhibition of growth of gastric cancer stem cell spheres; format: cell-based, human; settings: salinomycin 5 μM, 6th day after administration; PBS 433.3±6.0%
Protocol: as §1
To the wells of 96-well culture plate, PBS, free salinomycin, SAL-SWNTs-CHI or SAL-SWNTs-CHI-HA were added, respectively, and the concentration of salinomycin in the above preparations was 5 μM. After addition, the 96-well plate was placed in a 37° C., 5% CO2 incubator and incubated continuously. The growth of tumor spheres under these conditions was observed. […] The formula for calculating the inhibition rate of tumor sphere growth was as follows: […], in which dmax was maximum diameter, dmin was minimum diameter; tumor sphere volume change rate %=(Vdayi/Vday0) 100%, in which Vdayi represents the volume of stem cell spheres on the i^th day after administration, and Vday0 represents the volume of stem cell spheres before administration.

CD44+ cells [3] = test: Apoptosis by Annexin V-FITC / propidium iodide flow cytometry; format: cell-based, human; settings: drug concentration 5.0 μM, 12 h
Protocol: Flow cytometry was used to detect the apoptosis of gastric cancer stein cells via double-staining method with Annexin V-FITC and propidium iodide (PI), so as to observe the activities of various salinomycin dosage forms in induction of apoptosis of gastric cancer stem cells. CD44+ cells were seeded in a 6-well cell culture plate in an amount of 5×10^5 cells/well (2 ml), and incubated at 37° C. in a 5% CO2 cell incubator for 24 h; and separately added with PBS (pH 7.4, 0.1 M), blank SWNTs-CHI-HA, free salinomycin, SAL-SWNTs-CHI or SAL-SWNTs-CHI-HA (drug concentration: 5.0 μM), and continuously incubated at 37° C. for 12 h in a 5% CO2 cell incubator. The 6-well cell culture plate was removed from the cell culture incubator, the supernatant was carefully sucked up; the cells were washed three times with cold pH7.4 PBS, collected and suspended in 200 μl of binding buffer. 5 μl of Annexin V-FITC and 5 μl of propidium iodide were added in the dark, placed in the dark at room temperature for 15 min, and the apoptotic rate of the cells was detected by flow cytometry.

[4] = cited from earlier work
CD44+ cells [5] = test: WST-8 proliferation inhibition, CD44+ cells; format: cell-based, human; settings: 48 h, series of concentrations
Protocol: as §2, §3

Compound	Proportion of CD44+ cells after treatment (AGS cells) [%]	FITC fluorescence in stem cell spheres (penetration) [1]	Inhibitory effect on proliferation of CD44− cells (CD44− cells)	Effect of killing breast cancer stem cells relative to paclitaxel (breast cancer stem cells)	Volume change rate of cell spheres [2] [%]	Apoptotic rate of gastric cancer stem cells (CD44+ cells [3]) [%]	Necrosis rate of gastric cancer stem cells (CD44+ cells [3]) [%]	Water solubility [4]	Inhibitory effect on proliferation of CD44+ cells (CD44+ cells [5])
CO[C@@]12[C@H](COC(N)=O)C3=C(C(=O)C(C)=C(N)C3=O)N1C[C@@H]1N[C@@H]12 [mitomycin C]	74.9±1.0	–	–	–	–	–	–	–	–
fluorescein isothiocyanate [free FITC]	–	weakest fluorescence intensity	–	–	–	–	–	–	–
CC[C@@H](C(=O)[C@@H](C)[C@@H](O)[C@H](C)[C@@H]1O[C@@H]([C@@H](CC)C(=O)O)CC[C@@H]1C)[C@H]1O[C@]2(C=C[C@@H](O)[C@]3(CC[C@@](C)([C@H]4CC[C@](O)(CC)[C@H](C)O4)O3)O2)[C@H](C)C[C@@H]1C [Salinomycin]	1.75±0.21	–	strongest inhibitory effect	more than 100 times	179.5±5.8	34.8	4.3	poor	significant inhibitory effects
